This passage reports TGI and GI50 results from PubChem BioAssay (NCI).

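Cells were grown in 96-well plates and exposed to each compound for 48 hours at five concentrations; endpoints were interpolated linearly between bracketing concentrations, or set to the highest concentration if not reached. At the GI50, growth is halved. At the TGI there is no net growth.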 Some results are limits rather than exact numbers.

What all share (assay): NCI-60 cell line screen, 48 h
Assay [1] relates to SNB-78 CNS.
Assay [2] concerns DMS 114 small cell lung.
Assay [3] deals with HOP-18 NSCLC.
Assay [4] concerns HS 578T breast.
Assay [5] relates to BT-549 breast.
Assay [6] deals with MDA-N.
Assay [7] deals with MDA-MB-435.
For assay [8], the system named is DU-145 prostate.

Turning to `CC[O-].CC[O-].O=C1c2ccccc2C(=O)c2c(O)ccc([O-])c21.O=C1c2ccccc2C(=O)c2c(O)ccc([O-])c21.[Ti+4]`, the TGI in assay [1], in assay [2] and in assay [3] was above 100 µM in each case. Also, the GI50 in assay [3] is 74.4 µM.
Regarding `c1ccc(C2=NNC3c4ccccc4-c4ccccc4N3C2)cc1` (stereo unspecified), the TGI is above 100 µM in assay [4]; above 100 µM in assay [5]; above 100 µM in assay [6]; 68.1 µM in assay [7]; above 100 µM in assay [8].
With `CC(C)=CCC/C(=C/CC/C(C)=C/CCc1ccoc1)C(=O)O`, the TGI in assay [1] and in assay [2] was above 100 µM throughout.
Turning to `CN(C)P(=O)(/C(N)=N/Nc1ccc([N+](=O)[O-])cc1)N(C)C`, the TGI in assay [1] and in assay [2] was above 100 µM each time.
As to `O=C(O)CP(=S)(S)c1ccccc1` (stereo unspecified), the TGI in assay [1] and in assay [2] was above 100 µM throughout.
As for `O=C1NC(=O)c2ccc([N+](=O)[O-])c3cccc1c23`, the TGI in assay [4] is 61 µM; in assay [5], 33.7 µM; in assay [6] it was 26.8 µM; in assay [7] it was 29.9 µM; in assay [8], above 100 µM.
Take `CC(=O)[CH-]C(=O)c1ccccc1.CC(=O)[CH-]C(=O)c1ccccc1.O=C([O-])c1ccc([O-])cc1.O=C([O-])c1ccc([O-])cc1.[Ti+4]`: in assay [3], the GI50 was 68.8 µM and the TGI was above 100 µM.
Regarding `Cc1ccc(Nc2nc3c(s2)C(=O)c2ccccc2C3=O)c(C)c1`, the TGI was found to be 43.6 µM in assay [1], 24.1 µM in assay [2] and 20.1 µM in assay [3].
On to `CC12CCCC(O)C1CCC1=CC3(CCC12)SCCS3` (stereo unspecified), for which the TGI in assay [5], in assay [6], in assay [7] and in assay [8] was above 10 µM throughout.
Regarding `Cn1cc(C(=O)c2ccccc2)ccc1=O`, the TGI in assay [1] and in assay [2] was above 100 µM throughout.
As to `CC(C)N(C(=O)C12CC3CC(CC(C3)C1)C2)C(C)C`, the TGI in assay [1], in assay [2] and in assay [3] was above 50 µM each time.
Regarding `Cc1cccc(NC(=O)C(=O)Cc2nc3ccccc3[nH]c2=O)c1C`, the TGI in assay [1], in assay [2] and in assay [3] was above 100 µM in each case.
`CC1=C2C(=O)O[C@@H](c3ccoc3)[C@]2(C)CCC1`: the TGI in assay [1], in assay [2] and in assay [3] was above 100 µM in each case.
On to `COc1cc(OC)c(/C=C/C(=O)c2c(OC)cccc2OC)c(OC)c1`, for which the GI50 in assay [4] is 1.28 µM; in assay [5], 0.3 µM; in assay [7], 0.263 µM; in assay [8], 2.01 µM. Also, the TGI in assay [4] is above 36.3 µM; in assay [5], 1.84 µM; in assay [7], 1.09 µM; in assay [8], above 29.3 µM.
Take `NC(=S)N/N=C/c1ccc(OC(=O)COc2ccc(Cl)cc2)cn1`: the GI50 in assay [4] was 2.86 µM; in assay [5], 4.74 µM; in assay [7], 5.89 µM; in assay [8] it was 2.46 µM. The TGI in assay [4] was above 100 µM; in assay [5], above 100 µM; in assay [7], above 100 µM; in assay [8], 8.65 µM.
As to `CCCCCCCCCCCCCC1CCC(CC)N1` (stereo unspecified), the TGI in assay [1] amounted to 30.4 µM; in assay [2], 17.4 µM; in assay [3], 30.9 µM.
For `Cc1ccc2nc3c(C(=O)NCCN(C)C)cccc3nc2c1` the same measures were 41.1 µM, 11.6 µM and above 87.3 µM.
`Clc1nc(Cl)c2ncn(Cc3cccc(COc4cccc(OCc5cccc(Cn6cnc7c(Cl)nc(Cl)nc76)c5)c4)c3)c2n1`: the GI50 was above 100 µM in assay [4], 14.1 µM in assay [5], 13.8 µM in assay [7] and 14.2 µM in assay [8]. In addition, the TGI was above 100 µM in assay [4], above 100 µM in assay [5], above 100 µM in assay [7] and 42.8 µM in assay [8].
`CC1=C(C)CC2(CCCCC2=O)S(=O)C1` (stereo unspecified): the TGI in assay [1], in assay [2] and in assay [3] was above 100 µM in each case.
In the case of `CCc1[nH]c(=O)nc(N)c1-c1ccc(N2CCCCC2)c([N+](=O)[O-])c1`, the TGI in assay [4], in assay [5], in assay [6], in assay [7] and in assay [8] was above 100 µM throughout.
Take `CC(=O)OC1=NN=C2COC(c3ccccc3OC(C)=O)=NN2C1`: the TGI in assay [4], in assay [5], in assay [6], in assay [7] and in assay [8] was above 50 µM in each case.
On to `Nc1ncc(-c2cnn(CCO)c2)c2scc(-c3ccc(NC(=O)Nc4cccc(F)c4)cc3)c12`, for which the GI50 was 0.273 µM in assay [4], 0.618 µM in assay [5], 0.209 µM in assay [7] and 0.52 µM in assay [8]. For the same compound, the TGI in assay [4] is 3.02 µM; in assay [5], 3.76 µM; in assay [7], 1.83 µM; in assay [8] it was 11.6 µM.
Turning to `N.N.N.N.N.O=C([O-])c1nn[n-]n1.[Cl-].[Co+3]`, in assay [1], the GI50 is above 100 µM and the TGI was above 100 µM. In assay [3], the GI50 was above 100 µM and the TGI was above 100 µM.
On to `CCN(CC)CCN1CC(O)=C(c2nc(-c3ccc(Cl)cc3)cs2)C1=N`, for which the GI50 in assay [4] was 1.5 µM; in assay [5], 5.17 µM; in assay [7] it was 1.72 µM; in assay [8], 7.26 µM. In addition, the TGI in assay [4] is 3.59 µM; in assay [5] it was 21.2 µM; in assay [7] it was 3.25 µM; in assay [8], 62.4 µM.
Consider `COc1cc(C2=NN(C(C)=O)C(c3ccc(OC(C)=O)cc3OC(C)=O)O2)c(OC(C)=O)c2ccccc12` (stereo unspecified), for which the GI50 in assay [4] was 13.1 µM; in assay [5] it was 1.87 µM; in assay [7], 1.38 µM; in assay [8], 0.683 µM. Besides, the TGI in assay [4] is above 100 µM; in assay [5] it was 47.6 µM; in assay [7], 39 µM; in assay [8], above 100 µM.
With `Fc1cc(F)c(COc2cc(Cn3cnc4c(Cl)nc(Cl)nc43)ccc2C23CC4CC(CC(C4)C2)C3)cc1F`, the GI50 was 22.9 µM in assay [4], 11 µM in assay [5], 17.3 µM in assay [7] and 17.1 µM in assay [8]. Besides, the TGI in assay [4] came out at 60.9 µM; in assay [5], 24.5 µM; in assay [7], 33 µM; in assay [8], 30.8 µM.
Regarding `CCN(CC)c1ccc(C(=N)c2ccc(N(CC)CC)cc2)cc1`, the GI50 in assay [4] is 0.59 µM; in assay [5], 1.16 µM; in assay [7], 0.318 µM; in assay [8], 0.467 µM. In addition, the TGI in assay [4] is 2.39 µM; in assay [5] it was 5.78 µM; in assay [7], 1.3 µM; in assay [8], 2.65 µM.
As for `CCCCN=C(N)c1ccc(OCCSCCOc2ccc(C(N)=NCCCC)cc2)cc1`, the GI50 is 34.2 µM in assay [4], 1.97 µM in assay [5], 3.35 µM in assay [7] and 10.7 µM in assay [8]. For the same compound, the TGI in assay [4] was above 100 µM; in assay [5] it was 13.3 µM; in assay [7] it was above 100 µM; in assay [8], above 100 µM.
Turning to `Cc1noc(C)c1CCCOC1COc2ccccc2OCCOCCOc2ccccc2OC1`, the TGI in assay [1], in assay [2] and in assay [3] was above 100 µM each time.
For the compound `O=C(c1cccc(O)c1O)c1cn(Cc2ccc(F)cc2)c2cccc(O)c12`, the GI50 is 3.42 µM in assay [4], 7.72 µM in assay [5], 5.23 µM in assay [7] and 5.1 µM in assay [8]. The TGI in assay [4] came out at 20.6 µM; in assay [5] it was 21.6 µM; in assay [7], 36.3 µM; in assay [8] it was 17.3 µM.
With `COc1ccc(N2C(=O)C3c4[nH]c5ccc(C)cc5c4C4CCC(C(C)(C)C)CC4C3C2=O)cc1` (stereo unspecified), the TGI was 9.89 µM in assay [4], 67.9 µM in assay [5], above 100 µM in assay [7] and above 100 µM in assay [8].
As for `O=C(O)CC1OCC=C2CN3CCC45c6ccccc6NC4C1C2CC35` (stereo unspecified), the TGI in assay [5], in assay [6], in assay [7] and in assay [8] was above 100 µM each time.
`Nc1ccc(/C=C/c2ccnc3ccccc23)cc1`: in assay [2], the TGI was found to be 45.8 µM.
Take `CCOC(=O)c1c(CN2CCN(c3ccccc3)CC2)n(-c2ccccc2)c2cc(Br)c(O)cc12`: the GI50 is 14.4 µM in assay [4], 8.64 µM in assay [5], 11.3 µM in assay [7] and 12.5 µM in assay [8]. The TGI was above 100 µM in assay [4], 23.9 µM in assay [5], 34.4 µM in assay [7] and 28.2 µM in assay [8].
Turning to `CCOC(=O)Sc1ncnc2nc[nH]c12`, the GI50 in assay [4] was 13.8 µM; in assay [5] it was 9.92 µM; in assay [7], 1.47 µM; in assay [8], 0.586 µM. Also, the TGI in assay [4], in assay [5], in assay [7] and in assay [8] was above 100 µM in each case.
`Cc1ccc(S(=O)(=O)n2c(-c3ccccc3)c(-c3ccccc3)c3ccccc32)cc1`: the TGI in assay [2] and in assay [3] was above 100 µM throughout.
As to `Cc1ccc(/C(=C/C=C(C#N)C#N)Sc2ccc(Cl)cc2)cc1`, the GI50 in assay [4] was 14.3 µM; in assay [5], 3.37 µM; in assay [7] it was 3.02 µM; in assay [8], 3.95 µM. Also, the TGI in assay [4] is 58.4 µM; in assay [5] it was 9.16 µM; in assay [7] it was 10.7 µM; in assay [8], 11.3 µM.
As for `COc1c2c(cc3nc4ccccc4nc13)CCC(C(C)(C)O)C2` (stereo unspecified), the TGI in assay [1] and in assay [3] was above 100 µM in each case.
Regarding `CCS(=O)(=O)c1ccc(OC)c(Nc2ncc(-c3cccc(C(C)=O)c3)o2)c1`, the GI50 in assay [4] was 5.88 µM; in assay [5], 20.4 µM; in assay [7], above 25 µM; in assay [8], above 25 µM. Moreover, the TGI in assay [4], in assay [5], in assay [7] and in assay [8] was above 25 µM throughout.
For the compound `COc1ccc(C(=O)c2cc(C)c(OC)c(C)c2)c(OC)c1N(C(=O)C(Cl)Cl)C(=O)C(Cl)Cl`, the GI50 in assay [4] was 0.0277 µM; in assay [5] it was 0.0607 µM; in assay [7], 0.021 µM; in assay [8], 0.0392 µM. Also, the TGI in assay [4] is above 100 µM; in assay [5] it was 2.75 µM; in assay [7] it was 0.0625 µM; in assay [8], above 100 µM.
Take `CCCCCCCC(CC(=O)NC(CO)C(=O)NC(CO)CC(C)C)OC(=O)CC(CCCCCCC)OC(=O)CC(CCCCCCC)OC1OC(C)C(O)C(OC2OC(C)C(O)C(OC(C)=O)C2O)C1O` (stereo unspecified): the TGI was found to be 20.3 µM in assay [4]; 19.9 µM in assay [5]; 19.5 µM in assay [6]; 23 µM in assay [7]; 23.4 µM in assay [8].
On to `CC(C)c1ccc(C(=O)Nc2sc3c(c2C(N)=O)CCC(=O)C3)cc1`, for which the GI50 was 0.534 µM in assay [4], 0.352 µM in assay [5], 1.49 µM in assay [7] and 3.16 µM in assay [8]. Moreover, the TGI in assay [4] was found to be 5.27 µM; in assay [5] it was 1.94 µM; in assay [7] it was 3.62 µM; in assay [8], 14.3 µM.
For the compound `COc1cc2oc(-c3ccc(O)cc3)cc(=O)c2c(OC)c1OC`, the TGI in assay [4], in assay [5], in assay [6], in assay [7] and in assay [8] was above 100 µM throughout.
For the compound `COC(=O)C(=O)C(C(=O)C(=O)Nc1ccccc1C(N)=O)c1nc2ccc(Cl)cc2[nH]c1=O` (stereo unspecified), the TGI in assay [4], in assay [5], in assay [6], in assay [7] and in assay [8] was above 100 µM each time.
For the compound `NC(CC(=O)OCc1ccccc1)C(=O)OCc1ccccc1` (stereo unspecified), the TGI in assay [4], in assay [6], in assay [7] and in assay [8] was above 100 µM throughout.
